The values that follow come from article PMC8035258 (ChemMedChem, 2021).

In experiment [1] the target is Mitochondrial respiratory complex II (Mus musculus, UniProt Q8K2B3+Q9CQA3+Q9CXV1+Q9CZB0). The experiment is described as follows: Complex II inhibition assay. The experiment is classed as biochemical. As to conditions: for inhibition at 100 µM: read-out: % Inhibition CII (100 μM), 100 μM; for inhibition at 100 µM / % Inhibition CII (100 μM): mouse liver mitochondria, mean ±SD of n = 4.

Experiment [2] has as its system 22Rv1 prostate cancer cells. The experiment in a line: MTS cytotoxicity assay in 22Rv1 prostate cancer cells. The experiment is classed as cell-based. As to conditions: for reduction of 22Rv1 cell viability: 100 μM, 48 hr treatment, MTS.
The subject of another experiment is TNBC MDA-MB-468 cells. The experiment in a line: MTS cytotoxicity assay in MDA-MB-468 cells. As to conditions: for SI (Selectivity Index): MDA-MB-468 over HEK293 cells; for IC50: read-out: MDA-MB-468 IC50, 72 hours, mean ±SD of n=3. The format is cell-based.
Experiment [3] relates to low tumorigenic human endothelial kidney (HEK293) cells. The experiment in a line: MTS cytotoxicity assay in HEK293 cells. The format is cell-based. As to conditions: Homo sapiens, HEK293, 72 h, read-out: HEK293 IC50. (Tetrazolium dyes change colour on reduction, which living cells bring about.)
Experiment [4] has as its system CII. As to conditions: read-out: CII IC50, cited from earlier work.
Experiment [5] concerns CII. As to conditions: read-out: CII IC50; rat heart mitochondria; cited from earlier work.
The subject of another experiment is breast cancer. As to conditions: 200–300 mg/day, nine patients, stable disease for 4–8 months; cited from earlier work.
The test system of a further experiment is TTK. As to conditions: 100 μM, KinomeScan; cited from earlier work.
A further experiment relates to IRAK1. As to conditions: 100 μM, KinomeScan; cited from earlier work.
Experiment [6] deals with 22Rv1 prostate cancer cells. As to conditions: read-out: 22Rv1 IC50, clinical agents; cited from earlier work.

Read-outs that look alike come from different tables or passages of the source.

The term inhibition denotes the percentage by which the read-out fell short of the control. By IC50 is commonly meant the concentration at which inhibition is half-maximal.

Chain of Mitochondrial respiratory complex II (Q8K2B3 43-664): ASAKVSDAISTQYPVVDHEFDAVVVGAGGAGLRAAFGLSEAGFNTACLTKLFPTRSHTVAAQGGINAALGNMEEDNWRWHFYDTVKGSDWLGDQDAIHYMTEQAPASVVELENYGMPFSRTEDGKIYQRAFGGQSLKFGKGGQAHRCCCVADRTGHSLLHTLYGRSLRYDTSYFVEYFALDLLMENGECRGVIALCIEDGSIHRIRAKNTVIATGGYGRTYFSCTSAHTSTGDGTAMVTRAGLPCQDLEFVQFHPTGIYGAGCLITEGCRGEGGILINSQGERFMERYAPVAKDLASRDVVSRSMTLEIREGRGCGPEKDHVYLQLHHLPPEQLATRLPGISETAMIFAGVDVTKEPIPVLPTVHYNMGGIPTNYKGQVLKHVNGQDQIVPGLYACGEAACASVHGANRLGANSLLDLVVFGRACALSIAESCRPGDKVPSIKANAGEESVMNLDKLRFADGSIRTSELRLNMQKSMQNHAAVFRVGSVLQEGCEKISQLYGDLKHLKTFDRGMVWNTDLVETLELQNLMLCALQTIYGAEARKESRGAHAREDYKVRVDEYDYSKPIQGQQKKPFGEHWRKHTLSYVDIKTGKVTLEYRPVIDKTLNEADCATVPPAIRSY
Chain of Mitochondrial respiratory complex II (Q9CQA3 31-282): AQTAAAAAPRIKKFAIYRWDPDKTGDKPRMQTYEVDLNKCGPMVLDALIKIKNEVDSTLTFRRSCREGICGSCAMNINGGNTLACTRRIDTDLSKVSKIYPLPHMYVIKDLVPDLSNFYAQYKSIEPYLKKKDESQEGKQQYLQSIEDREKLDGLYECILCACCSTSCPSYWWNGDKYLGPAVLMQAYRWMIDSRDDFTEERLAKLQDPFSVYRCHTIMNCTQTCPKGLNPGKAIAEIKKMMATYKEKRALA
Chain of Mitochondrial respiratory complex II (Q9CZB0 30-169): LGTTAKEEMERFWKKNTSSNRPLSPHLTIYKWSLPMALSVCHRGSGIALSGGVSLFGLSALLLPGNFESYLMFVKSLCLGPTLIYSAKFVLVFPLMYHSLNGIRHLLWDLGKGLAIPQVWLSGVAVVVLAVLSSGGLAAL
Chain of Mitochondrial respiratory complex II (Q9CXV1 57-159): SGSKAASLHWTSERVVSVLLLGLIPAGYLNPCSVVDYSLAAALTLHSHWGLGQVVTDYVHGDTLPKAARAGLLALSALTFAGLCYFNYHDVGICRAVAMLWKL

`CC(NC1=NS(=O)(=O)c2ccccc2N1)c1ccccc1` (stereo not drawn) [Compound 24d, 3-((1-Phenylethyl)amino)-4H-benzo[e][1,2,4]thiadiazine 1,1-dioxide]: the inhibition at 100 µM in experiment [1] was determined as 0%. Also, the “reduction of 22Rv1 cell viability” value in experiment [2] is given as “approximately 30%”. In addition, the “SI (Selectivity Index)” value in the experiment on TNBC MDA-MB-468 cells was 3.92. For the same molecule, in [3], the IC50 was determined as 48.6 ± 1.7 µM.
With `O=C(O)CC(=O)O` [Malonate], the IC50 in the experiment on CII [4] (competitive CII inhibitor) was 40 µM.
In the case of `CC(NC1=NS(=O)(=O)c2cc(F)ccc2N1)c1ccccc1` (stereo not drawn) [Compound 24a, 7-Fluoro-3-((1-phenylethyl)amino)-4H-benzo[e][1,2,4]thiadiazine 1,1-dioxide], the inhibition at 100 µM in [1] was determined as 22 ± 9.9%. Further, the “reduction of 22Rv1 cell viability” value in experiment [2] is 34%. The “SI (Selectivity Index)” value with TNBC MDA-MB-468 cells was 10.2. The IC50 in [3] stood at 42.6 ± 5.9 µM.
For the molecule `COc1[nH]c(=O)c(C(=O)[C@@H](C)C[C@H](C)[C@@H](Cl)CCl)c(O)c1OC` [Atpenin A5, atpenin A5], in [1] (read-out: % inhibition of CII at 0.1 μM), the inhibition at 0.1 µM is 93%. Further, the IC50 was 0.0033 µM in the experiment on CII [4] (positive control) and 0.0036 to 0.01 µM in the experiment on CII [4] (ubiquinone binding site (IIQ)).
Regarding `O=S1(=O)N=C(NCCCc2ccccc2)Nc2ccc(Br)cc21` [Compound 23c, 7-Bromo-3-((3-phenylpropyl)amino)-4H-benzo[e][1,2,4]thiadiazine 1,1-dioxide], in experiment [1], the “% Inhibition CII (100 μM)” value is on record as 46 ±13.4% and the inhibition at 100 µM was found to be 47%. Also, the “reduction of 22Rv1 cell viability” value in [2] turned out to be 42%. Besides, the “SI (Selectivity Index)” value with TNBC MDA-MB-468 cells is listed as 7.75. The IC50 in [3] was determined as 71.8 ± 8.2 µM.
With `CC1=Nc2ccc(Cl)cc2S(=O)(=O)N1` [Diazoxide, 7-chloro-3-methyl-2H-1,2,4-benzothiadiazine 1,1-dioxide, reference compound], the IC50 is 1236 ± 2.5 µM in [1], 434 ± 26.2 µM in the experiment on TNBC MDA-MB-468 cells, 547 ± 34.1 µM in experiment [3] and 32 µM in the experiment on CII [5]. Besides, in experiment [1] (listed as DZX), the “% Inhibition CII (100 μM)” value is on record as “no CII inhibition activity”. In experiment [1], the inhibition at 100 µM amounted to 9%. The “effect to reduce cell viability of prostate cancer cells” value in experiment [2] (100 μM up to 72 hours) is “no effect”. Further, in the experiment with TNBC MDA-MB-468 cells (100 μM up to 72 hours), the “effect to reduce cell viability of breast cancer cells” value is on record as “no effect”. For the same molecule, the “SI (Selectivity Index)” value in the experiment with TNBC MDA-MB-468 cells came to 1.26. Also, the response rate with breast cancer is given as 33%. In addition, the kinase inhibition was 15% in the experiment on TTK and 9% in the experiment with IRAK1.
Take `CC(O)c1cc(C(=O)N[C@@H](C)Cn2ccc(-c3ccc(C#N)c(Cl)c3)n2)[nH]n1` (stereo partly drawn) [darolutamide]: the IC50 in experiment [6] is 46 ± 10 µM.
As for `O=S1(=O)N=C(NCc2ccc(C(F)(F)F)cc2)Nc2ccc(Br)cc21` [Compound 25c, 7-Bromo-3-((4-(trifluoromethyl)benzyl)amino)-4H-benzo[e][1,2,4]thiadiazine 1,1-dioxide], the “reduction of 22Rv1 cell viability” value in [2] amounted to 34%. Also, the IC50 in experiment [3] worked out at 57.5 ± 4.7 µM.
Consider `Cc1c(C)c2c(c(C)c1OC(=O)CCC(=O)O)CC[C@@](C)(CCC[C@H](C)CCC[C@H](C)CCCC(C)C)O2` [α-TOS, α -Tocopheryl succinate], for which, in the experiment on CII [4], the IC50 is 42 µM.
Consider `O=S1(=O)N=C(NCc2ccc(OC(F)(F)F)cc2)Nc2ccc(Br)cc21` [Compound 30c, 7-Bromo-3-((4-(trifluoromethoxy)benzyl)amino)-4H-benzo[e][1,2,4] thiadiazine 1,1-dioxide], for which, in [1], the “% Inhibition CII (100 μM)” value came to 22 ±21.1% and the inhibition at 100 µM was 21%. In addition, the “reduction of 22Rv1 cell viability” value in experiment [2] turned out to be 45%. Moreover, in the experiment on TNBC MDA-MB-468 cells, the “SI (Selectivity Index)” value turned out to be 2.93 and the IC50 turned out to be 18 ± 1.4 µM. In addition, the IC50 in experiment [3] was found to be 52.9 ± 1.8 µM.
With `COc1ccc(CNC2=NS(=O)(=O)c3cc(Br)ccc3N2)cc1` [Compound 20c, 7-Bromo-3-((4-methoxybenzyl)amino)-4H-benzo[e][1,2,4]thiadiazine 1,1-dioxide], in experiment [1], the midpoint of inhibition, the IC50, lay at 79.7 ± 4 µM and the inhibition at 100 µM was 64 ± 15.3%. The “reduction of 22Rv1 cell viability” value in experiment [2] came to 41%. For the same molecule, the “SI (Selectivity Index)” value in the experiment with TNBC MDA-MB-468 cells is recorded as 3.23. The IC50 in experiment [3] was 88 ± 12.3 µM.
For `O=S1(=O)NC(=S)Nc2cc(Cl)ccc21` [Compound 12b, 6-Chloro-3-thioxo-3,4-dihydro-2H-1,2,4-benzothiadiazine 1,1-dioxide], in [1], the IC50 stood at 11.9 ± 3.3 µM and the inhibition at 100 µM came out at 81 ± 6.9%. Further, the “reduction of 22Rv1 cell viability” value in experiment [2] turned out to be 12%.
Consider `CC(NC1=NS(=O)(=O)c2cc(Br)ccc2N1)c1ccccc1` (stereo not drawn) [Compound 24c, 7-Bromo-3-((1-phenylethyl)amino)-4H-benzo[e][1,2,4]thiadiazine 1,1-dioxide], for which the IC50 in [1] was 79.8 ± 4.1 µM; in [2] (Homo sapiens, 22Rv1, read-out: 22Rv1 IC50), 38.9 ± 3.2 µM; in experiment [3] it was 32.2 ± 1.5 µM. Moreover, the inhibition at 100 µM in experiment [1] is 55 ± 8.2%. In addition, the “reduction of 22Rv1 cell viability” value in experiment [2] is on record as 70%. Also, in the experiment on TNBC MDA-MB-468 cells, the “SI (Selectivity Index)” value is listed as 11.
Take `O=C(CC(=O)C(F)(F)F)c1cccs1` [TFFA, Thenoyltrifluoroacetone]: in the experiment on CII [4] (control compound in CII assays), the IC50 is 30 µM.
As to `CC(NC1=NS(=O)(=O)c2ccc(Cl)cc2N1)c1ccccc1` (stereo not drawn) [Compound 24b, 6-Chloro-3-((1-phenylethyl)amino)-4H-benzo[e][1,2,4]thiadiazine 1,1-dioxide], in [1], the IC50 was found to be 89 ± 10.4 µM and the inhibition at 100 µM came out at 51 ± 13.9%. In addition, the “reduction of 22Rv1 cell viability” value in experiment [2] is 50%. Moreover, the “SI (Selectivity Index)” value with TNBC MDA-MB-468 cells turned out to be 2.72. In experiment [3], the IC50 turned out to be 118 ± 22.3 µM.
Take `O=S1(=O)NC(=S)Nc2ccc(Br)cc21` [Compound 12c, 7-Bromo-3-thioxo-3,4-dihydro-2H-1,2,4-benzothiadiazine 1,1-dioxide]: in experiment [1], the IC50 is 37 ± 2.4 µM and the inhibition at 100 µM was 55 ± 15.2%. The “reduction of 22Rv1 cell viability” value in experiment [2] is on record as 16%.
In the case of `CNC(=O)c1ccc(N2C(=S)N(c3cnc(C#N)c(C(F)(F)F)c3)C(=O)C23CCC3)cc1F` [apalutamide], the IC50 in experiment [6] was 77 ± 17 µM.
